# Laboratory results published in ChEMBL document CHEMBL1149398, “Pyrrolizidine esters and amides as 5-HT4 receptor agonists and antagonists” (J Med Chem, 2006).
# Activity calls are given as the source filed them. The rule behind the calls is not given here.
# Columns and labels:
# [1] = molecular target: T1, 5-hydroxytryptamine receptor 4 (Rattus norvegicus, UniProt Q62758); assay: Antagonism at 5HT4 receptor in rat tunica muscularis mucosa; type: functional, tissue-based; details: read-out: pA2 (converted)
# T1 sequence (Q62758 whole entry): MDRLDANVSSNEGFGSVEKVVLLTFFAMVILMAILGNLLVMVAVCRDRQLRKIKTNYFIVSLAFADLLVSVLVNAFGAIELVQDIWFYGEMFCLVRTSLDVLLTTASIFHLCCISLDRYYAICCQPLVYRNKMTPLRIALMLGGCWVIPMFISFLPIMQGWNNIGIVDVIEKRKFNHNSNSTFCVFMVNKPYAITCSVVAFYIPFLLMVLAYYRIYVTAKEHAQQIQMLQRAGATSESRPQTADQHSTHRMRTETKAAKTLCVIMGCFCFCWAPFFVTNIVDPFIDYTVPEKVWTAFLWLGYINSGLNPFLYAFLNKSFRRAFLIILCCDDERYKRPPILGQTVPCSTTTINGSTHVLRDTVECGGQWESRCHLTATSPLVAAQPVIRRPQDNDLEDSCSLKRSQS
# [2] = Binding affinity to 5HT1 receptor
# [3] = molecular target: D(1A) dopamine receptor (Homo sapiens, UniProt P21728); assay: Binding affinity to dopamine receptor D1
# D(1A) dopamine receptor, sequence (P21728 whole entry): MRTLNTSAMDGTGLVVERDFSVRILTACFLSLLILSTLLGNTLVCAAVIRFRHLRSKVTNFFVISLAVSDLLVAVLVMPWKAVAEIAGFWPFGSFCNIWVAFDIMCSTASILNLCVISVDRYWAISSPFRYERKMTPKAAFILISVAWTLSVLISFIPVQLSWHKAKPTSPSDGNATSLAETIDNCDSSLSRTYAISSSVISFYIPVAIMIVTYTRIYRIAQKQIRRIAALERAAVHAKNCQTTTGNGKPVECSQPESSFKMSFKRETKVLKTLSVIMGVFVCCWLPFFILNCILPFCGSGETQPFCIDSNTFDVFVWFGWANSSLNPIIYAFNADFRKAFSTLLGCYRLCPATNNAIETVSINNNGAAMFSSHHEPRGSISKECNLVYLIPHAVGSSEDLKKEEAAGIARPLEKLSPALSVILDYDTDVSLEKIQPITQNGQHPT
# [4] = molecular target: Beta-1 adrenergic receptor (Homo sapiens, UniProt P08588); assay: Binding affinity to adrenergic beta-1 receptor
# Beta-1 adrenergic receptor, sequence (P08588 whole entry): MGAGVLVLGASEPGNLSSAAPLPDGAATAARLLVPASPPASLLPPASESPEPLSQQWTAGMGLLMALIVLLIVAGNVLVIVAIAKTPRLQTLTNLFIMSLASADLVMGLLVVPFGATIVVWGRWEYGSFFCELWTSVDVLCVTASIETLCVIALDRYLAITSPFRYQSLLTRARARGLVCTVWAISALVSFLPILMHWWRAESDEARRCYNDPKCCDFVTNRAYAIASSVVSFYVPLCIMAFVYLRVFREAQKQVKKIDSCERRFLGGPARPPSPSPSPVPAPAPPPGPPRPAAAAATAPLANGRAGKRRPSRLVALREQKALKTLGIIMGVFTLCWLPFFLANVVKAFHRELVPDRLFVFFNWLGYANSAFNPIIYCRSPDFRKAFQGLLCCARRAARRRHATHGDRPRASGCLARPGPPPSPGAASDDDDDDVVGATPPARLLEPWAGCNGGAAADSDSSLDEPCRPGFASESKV
# [5] = molecular target: Beta-2 adrenergic receptor (Homo sapiens, UniProt P07550); assay: Binding affinity to adrenergic beta-2 receptor
# Beta-2 adrenergic receptor, sequence (P07550 whole entry): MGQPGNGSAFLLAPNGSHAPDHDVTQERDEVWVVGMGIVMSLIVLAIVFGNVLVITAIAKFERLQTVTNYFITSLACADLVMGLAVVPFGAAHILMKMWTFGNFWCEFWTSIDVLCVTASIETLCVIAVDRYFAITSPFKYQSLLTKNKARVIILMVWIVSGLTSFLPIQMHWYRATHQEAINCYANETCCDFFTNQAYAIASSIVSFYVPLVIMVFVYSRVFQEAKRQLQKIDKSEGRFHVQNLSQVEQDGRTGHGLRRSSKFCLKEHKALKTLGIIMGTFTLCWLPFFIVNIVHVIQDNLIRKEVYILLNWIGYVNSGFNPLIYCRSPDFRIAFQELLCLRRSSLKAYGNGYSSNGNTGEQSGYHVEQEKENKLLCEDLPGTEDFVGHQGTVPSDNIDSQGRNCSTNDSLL
# [6] = test system: Canis familiaris; assay: Contractile response of the antrum in iv dosed fasted dog; type: functional; details: Canis lupus familiaris
# [7] = test system: Canis familiaris; assay: Effect on solid gastric emptying in iv dosed dog; type: functional
# [8] = molecular target: D(2) dopamine receptor (Homo sapiens, UniProt P14416); assay: Binding affinity to dopamine receptor D2
# D(2) dopamine receptor, sequence (P14416 whole entry): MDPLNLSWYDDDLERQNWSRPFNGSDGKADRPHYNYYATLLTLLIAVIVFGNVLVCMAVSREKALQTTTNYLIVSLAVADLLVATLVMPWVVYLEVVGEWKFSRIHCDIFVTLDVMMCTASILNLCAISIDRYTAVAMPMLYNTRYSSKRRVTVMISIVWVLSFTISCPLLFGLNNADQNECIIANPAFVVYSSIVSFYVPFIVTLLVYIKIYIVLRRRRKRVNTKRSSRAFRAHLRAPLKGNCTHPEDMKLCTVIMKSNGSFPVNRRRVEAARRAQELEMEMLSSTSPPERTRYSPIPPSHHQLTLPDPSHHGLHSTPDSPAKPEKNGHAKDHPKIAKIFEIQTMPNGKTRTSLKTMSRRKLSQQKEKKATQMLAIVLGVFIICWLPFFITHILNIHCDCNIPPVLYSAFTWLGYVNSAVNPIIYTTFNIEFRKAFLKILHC
# [9] = molecular target: T2, Serotonin 3 (5-HT3) receptor (Rattus norvegicus, UniProt P35563+Q9JJ16); assay: Displacement of [3H]GR65630 from 5HT3 receptor in brain cortex from Wistar rat; type: tissue-based
# T2 sequence (P35563 whole entry): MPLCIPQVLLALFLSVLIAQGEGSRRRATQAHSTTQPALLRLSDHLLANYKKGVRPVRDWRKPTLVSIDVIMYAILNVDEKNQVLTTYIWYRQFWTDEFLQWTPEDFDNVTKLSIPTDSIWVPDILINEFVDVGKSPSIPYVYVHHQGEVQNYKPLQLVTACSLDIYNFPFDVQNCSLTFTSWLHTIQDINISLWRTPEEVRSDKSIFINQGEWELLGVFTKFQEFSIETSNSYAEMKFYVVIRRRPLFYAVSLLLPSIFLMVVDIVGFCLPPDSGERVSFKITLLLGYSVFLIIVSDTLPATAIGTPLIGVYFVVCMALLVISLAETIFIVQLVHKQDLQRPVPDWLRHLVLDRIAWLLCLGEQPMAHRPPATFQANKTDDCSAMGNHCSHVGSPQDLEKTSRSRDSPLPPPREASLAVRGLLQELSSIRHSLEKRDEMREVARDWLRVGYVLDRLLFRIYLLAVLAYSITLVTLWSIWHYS
# T2 sequence (Q9JJ16 whole entry): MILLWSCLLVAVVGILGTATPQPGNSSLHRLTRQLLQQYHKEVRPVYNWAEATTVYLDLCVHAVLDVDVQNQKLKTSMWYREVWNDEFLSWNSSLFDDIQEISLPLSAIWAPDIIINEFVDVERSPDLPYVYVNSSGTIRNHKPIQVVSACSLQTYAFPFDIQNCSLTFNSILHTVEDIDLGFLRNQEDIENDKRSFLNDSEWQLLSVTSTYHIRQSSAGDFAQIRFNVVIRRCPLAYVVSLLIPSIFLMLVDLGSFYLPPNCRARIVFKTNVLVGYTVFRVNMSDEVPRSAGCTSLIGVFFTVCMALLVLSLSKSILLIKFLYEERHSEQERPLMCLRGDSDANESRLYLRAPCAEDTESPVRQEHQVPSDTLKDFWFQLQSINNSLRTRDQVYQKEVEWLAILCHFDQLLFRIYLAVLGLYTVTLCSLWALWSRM
# [10] = molecular target: T1, 5-hydroxytryptamine receptor 4; assay: Agonism at 5HT4 receptor in rat tunica muscularis mucosa; type: functional
# [11] = molecular target: T3, Serotonin 3 receptor (5HT3) (Mus musculus) (UniProt Q9JHJ5+P23979); assay: Antagonism at 5HT3 receptor in mice by von Bezold-Jarisch reflex inhibition at 10 mg/kg, ip; type: functional, organism-based; design: dose 10 mg/kg
# T3 sequence (P23979 whole entry, looked up): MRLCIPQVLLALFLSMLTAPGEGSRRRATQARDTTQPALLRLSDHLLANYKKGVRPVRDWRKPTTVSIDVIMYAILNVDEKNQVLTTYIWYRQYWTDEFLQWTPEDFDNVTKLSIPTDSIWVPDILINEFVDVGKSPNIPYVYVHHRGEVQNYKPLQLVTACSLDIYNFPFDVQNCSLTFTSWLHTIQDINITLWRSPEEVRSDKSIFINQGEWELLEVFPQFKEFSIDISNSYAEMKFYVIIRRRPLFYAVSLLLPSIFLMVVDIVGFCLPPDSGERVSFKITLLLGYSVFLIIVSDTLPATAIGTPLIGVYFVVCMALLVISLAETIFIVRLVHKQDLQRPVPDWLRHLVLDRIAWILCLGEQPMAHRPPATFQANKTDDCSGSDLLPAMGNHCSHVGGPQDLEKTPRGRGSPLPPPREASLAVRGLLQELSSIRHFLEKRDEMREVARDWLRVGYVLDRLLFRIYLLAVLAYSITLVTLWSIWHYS
# T3 sequence (Q9JHJ5 whole entry, looked up): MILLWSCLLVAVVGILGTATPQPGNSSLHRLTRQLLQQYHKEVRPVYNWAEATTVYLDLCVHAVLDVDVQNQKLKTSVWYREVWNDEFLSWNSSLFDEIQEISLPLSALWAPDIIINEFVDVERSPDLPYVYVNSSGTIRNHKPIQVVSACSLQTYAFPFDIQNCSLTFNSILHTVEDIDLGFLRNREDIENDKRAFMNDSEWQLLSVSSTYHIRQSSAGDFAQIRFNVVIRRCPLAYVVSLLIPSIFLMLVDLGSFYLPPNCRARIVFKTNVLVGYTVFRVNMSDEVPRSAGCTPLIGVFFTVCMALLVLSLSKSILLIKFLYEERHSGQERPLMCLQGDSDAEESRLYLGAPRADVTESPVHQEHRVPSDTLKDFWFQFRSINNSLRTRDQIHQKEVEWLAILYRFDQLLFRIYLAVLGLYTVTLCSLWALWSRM
# [12] = molecular target: T3, Serotonin 3 receptor (5HT3) (Mus musculus); assay: Antagonism at 5HT3 receptor in mice by von Bezold-Jarisch reflex inhibition at 3 mg/kg, ip; type: functional, organism-based; design: dose 3 mg/kg
# [13] = molecular target: 5-hydroxytryptamine receptor 4 (Rattus norvegicus) (UniProt Q62758); assay: Antagonism at 5HT4 receptor in rat tunica muscularis mucosa upto 100-1000 nM; type: functional, tissue-based
# 5-hydroxytryptamine receptor 4 (Rattus norvegicus), sequence (Q62758 whole entry): as the sequence (Q62758 whole entry) above
# [14] = molecular target: T4, 5-hydroxytryptamine receptor 4 (Cavia porcellus, UniProt O70528); assay: Inhibition of [3H]GR-113808 binding to 5HT4 receptor in guinea pig striatum at 500 nM; type: tissue-based
# T4 sequence (O70528 whole entry): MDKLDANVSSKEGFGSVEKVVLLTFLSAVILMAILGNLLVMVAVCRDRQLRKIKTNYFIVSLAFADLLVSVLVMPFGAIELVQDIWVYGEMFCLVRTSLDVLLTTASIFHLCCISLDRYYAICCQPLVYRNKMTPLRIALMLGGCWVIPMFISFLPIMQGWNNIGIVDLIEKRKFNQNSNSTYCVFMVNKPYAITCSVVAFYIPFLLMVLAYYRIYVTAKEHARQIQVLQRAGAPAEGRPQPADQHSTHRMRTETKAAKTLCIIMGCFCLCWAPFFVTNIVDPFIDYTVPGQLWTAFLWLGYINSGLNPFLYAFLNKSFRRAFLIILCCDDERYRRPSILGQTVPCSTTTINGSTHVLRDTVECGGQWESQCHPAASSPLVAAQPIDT
# [15] = molecular target: T3, Serotonin 3 receptor (5HT3) (Mus musculus); assay: Antagonism at 5HT3 receptor in mice by von Bezold-Jarisch reflex inhibition at 1 mg/kg, ip; type: functional, organism-based; design: dose 1 mg/kg
# [16] = test system: Salmonella typhi; assay: Mutagenic activity in a GLP study using Salmonella Typhimurium TA1535 in presence of S9 fraction at 10-5000 ug/plate; type: toxicity, organism-based; details: salmonella enterica subsp. enterica […]
# [17] = test system: Salmonella typhi; assay: Mutagenic activity in a GLP study using Salmonella Typhimurium TA100 in presence of S9 fraction at 10-5000 ug/plate; type: toxicity, organism-based; details: salmonella enterica subsp. enterica […]
# [18] = test system: Salmonella typhi; assay: Mutagenic activity in a GLP study using Salmonella Typhimurium TA1538 in presence of S9 fraction at 10-5000 ug/plate; type: toxicity, organism-based; details: salmonella enterica subsp. enterica […]
# [19] = test system: Salmonella typhi; assay: Mutagenic activity in a GLP study using Salmonella Typhimurium TA97 in presence of S9 fraction at 10-5000 ug/plate; type: toxicity, organism-based; details: salmonella enterica subsp. enterica […]
# [20] = test system: Salmonella typhi; assay: Mutagenic activity in a GLP study using Salmonella Typhimurium TA98 in presence of S9 fraction at 10-5000 ug/plate; type: toxicity, organism-based; details: salmonella enterica subsp. enterica […]
# [21] = molecular target: 5-hydroxytryptamine receptor 4 (Rattus norvegicus) (UniProt Q62758); assay: Antagonism at 5HT4 receptor in rat tunica muscularis mucosa at 0.1 uM; type: functional, tissue-based
# [22] = molecular target: T4, 5-hydroxytryptamine receptor 4; assay: Displacement of [3H]GR-113808 from 5HT4 receptor in guinea pig striatum
# [23] = molecular target: T3, Serotonin 3 receptor (5HT3) (Mus musculus); assay: Antagonism at 5HT3 receptor in mice by von Bezold-Jarisch reflex inhibition at 0.3 mg/kg, ip; type: functional, organism-based; design: dose 0.3 mg/kg
# [24] = molecular target: T3, Serotonin 3 receptor (5HT3) (Mus musculus); assay: Antagonism at 5HT3 receptor in mice by von Bezold-Jarisch reflex inhibition at 1000 mg/kg, ip; type: functional, organism-based; design: dose 1000 mg/kg
# [25] = Canis lupus familiaris, Stomach
smiles,measurement,setting,value
Cc1cnc2c(C(=O)NC[C@@H]3CCN4CCC[C@@H]34)cc(Cl)cn12,Kb,[1],81.3 nM
COc1cc(N)c(Cl)cc1C(=O)NC1CCN(CCCOc2ccc(F)cc2)CC1OC (stereo not drawn) [CISAPRIDE],IC50,[2],> 1000 nM
same,IC50,[3],1700 nM
same,IC50,[4],> 10000 nM
same,IC50,[5],> 10000 nM
same,ED50,[6],0.056 mg/kg
same,ED50,[7]; [25],0.03 mg/kg
CCc1nc(C(=O)NC[C@@H]2CCN3CCC[C@@H]23)c2ccccn12 (relative stereo),Kb,[1],275 nM
CCOc1cc(N)c(Cl)cc1C(=O)NC[C@@H]1CCN2CCC[C@@H]12,IC50,[8],5300 nM
same,Ki,[9],25 nM
same,EC50,[10],195 nM
same,inhibition,[11],89%
same,inhibition,[12],48%
CCc1cc(C(=O)NC[C@@H]2CCN3CCC[C@@H]23)c2ccccn12 (relative stereo),pA2,[13],inactive
COc1ccc2[nH]cc(C(=O)OC[C@@H]3CCN4CCC[C@@H]34)c2c1,Kb,[1],70.8 nM
Cn1cc(C(=O)NC[C@@H]2CCN3CCC[C@@H]23)c2ccccc21,pA2,[13],inactive
COc1cc(N)c(Cl)cc1C(=O)NC[C@H]1CCN2CCC[C@H]12,IC50,[8],3900 nM
same,inhibition,[14],18%
same,EC50,[10],323 nM
same,inhibition,[11],87%
same,inhibition,[12],79%
same,inhibition,[15],20%
same,Activity,[16],Not Active
same,Activity,[17],Not Active
same,Activity,[18],Not Active
same,Activity,[19],Not Active
same,Activity,[20],Not Active
same,ED50,[6],0.45 mg/kg
same,ED50,[7]; [25],1 mg/kg
Cn1c(C(=O)OC[C@@H]2CCN3CCC[C@@H]23)cc2ccccc21,pA2,[21],inactive
CC(C)n1c(=O)n(C(=O)NC[C@@H]2CCN3CCC[C@@H]23)c2ccccc21 (relative stereo),Ki,[9],20.2 nM
same,Ki,[22],7 nM
same,EC50,[10],374 nM
same,inhibition,[11],87%
same,inhibition,[15],62%
same,inhibition,[23],0%
COc1cc(N)c(Cl)cc1C(=O)NC[C@@H]1CC[N@@+]2(C)CCC[C@@H]12,Ki,[22],0.35 nM
same,EC50,[10],129 nM
same,inhibition,[24],16%
O=C(NC[C@@H]1CCN2CCC[C@@H]12)c1cccn2ccnc12,Kb,[1],178 nM
CC1(C)C(=O)N(C(=O)NC[C@@H]2CCN3CCC[C@@H]23)c2ccccc21,Kb,[1],100 nM
O=C(OC[C@@H]1CCN2CCC[C@@H]12)c1cc(Cl)cn2ccnc12,Kb,[1],178 nM
O=C(OC[C@@H]1CCN2CCC[C@@H]12)c1c[nH]c2ccc(F)cc12,Ki,[9],10 nM
same,Ki,[22],0.7 nM
same,Kb,[1],3.16 nM
COc1cc(N)c(Cl)cc1C(=O)OC[C@@H]1CCN2CCC[C@@H]12,IC50,[8],> 10000 nM
same,Ki,[9],51 nM
same,Ki,[22],0.183 nM
same,EC50,[10],1.5 nM
same,inhibition,[11],0%
COc1cc(N)c(Cl)cc1C(=O)N[C@H]1CCN2CCC[C@@H]1C2,EC50,[10],98 nM
same,ED50,[6],0.015 mg/kg
same,ED50,[7]; Canis lupus familiaris; Stomach,Active
